According to US10221163B2 (priority 2015, dated 2019):

What was measured:
IMP-1 = IMP-1 (Serratia marcescens, UniProt P52699); experiment: biochemical; assay type: biochemical; conditions: fluorescence assay, CCF2-FA substrate, 2 pM enzyme, 2 hours at 25° C.; read-out: IMP-1 IC50
Protocol: (§1) Enzyme Activity: Determination of IC50
(§2) The Class B enzyme activities were measured in the presence of the test inhibitor in a fluorescence assay against a commercially available substrate consisting of a cephalosporin core linking 7-hydroxycoumarin to fluorescein (CCF2-FA). […] In a 384-well microplate, the test inhibitor was incubated with the metallo-β-lactamase enzyme and the substrate for 2 hours at 25° C. […] The IC50 value was determined from semi-logarithmic plots of enzyme inhibition versus inhibitor concentration, with a curve generated using a 4-parameter fit.

NDM-1 = NDM-1 (Klebsiella pneumoniae, UniProt C7C422); experiment: biochemical; assay type: biochemical; conditions: fluorescence assay, CCF2-FA substrate, 1 pM enzyme, 2 hours at 25° C.; read-out: NDM-1 IC50
Sequence of NDM-1 (C7C422 whole entry, looked up, species assumed): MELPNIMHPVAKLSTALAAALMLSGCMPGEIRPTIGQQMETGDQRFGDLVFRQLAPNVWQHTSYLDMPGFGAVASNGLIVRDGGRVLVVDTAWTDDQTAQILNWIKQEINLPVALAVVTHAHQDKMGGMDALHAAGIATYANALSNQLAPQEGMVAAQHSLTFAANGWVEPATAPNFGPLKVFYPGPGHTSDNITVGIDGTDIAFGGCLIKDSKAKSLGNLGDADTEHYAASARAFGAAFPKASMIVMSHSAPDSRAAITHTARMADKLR
Protocol: as §1, §2

[1] = system: Pseudomonas aeruginosa efflux− (MB9799), IMP-1; assay type: cell-based; conditions: C, D serine β-lactamase inhibitor closely related to relebactam; for Concentration of metallo-β-lactamase inhibitor which restores susceptibility of efflux − (MB9799) strain to imipenem: imipenem at 2 μg/mL, in the presence of a class A; for P. aeruginosa expressing IMP-1, efflux − (MB9799) MITC95: concentration restoring susceptibility to imipenem at 2 μg/mL in the presence of a class A
Description: (§3) The strain background was Pseudomonas aeruginosa PAO1.
(§4) The strain set was then used as a pair to determine the effect of metallo-β-lactamase inhibitors of Formula I on the MIC of imipenem and/or ceftazidime. A fixed concentration of antibiotic was included in standard microbroth MIC tests, usually at the CLSI (Clinical and Laboratory Standards Institute) breakpoint concentration. A fixed amount of a class A/C beta-lactamase inhibitor was also included to inhibit the resident Pseudomonas AmpC enzyme. A serial titration of the metallo-β-lactamase inhibitor was included and the concentration of metallo-β-lactamase inhibitor which restores susceptibility of the strain to the included antibiotic was recorded. That concentration of metallo-β-lactamase inhibitor was then compared between the two strains to determine the fold difference between the efflux+ (MB9798) and efflux− (MB9799) strains. This was taken as an indication of the extent to which the MBLi is subject to efflux.

[2] = system: Pseudomonas aeruginosa efflux+ (MB9798), IMP-1; assay type: cell-based; design: Concentration of metallo-β-lactamase inhibitor which restores susceptibility of efflux + (MB9798) strain to imipenem: unit not given here; conditions: C, D serine β-lactamase inhibitor closely related to relebactam; for Concentration of metallo-β-lactamase inhibitor which restores susceptibility of efflux + (MB9798) strain to imipenem: imipenem at 2 μg/mL, in the presence of a class A; for P. aeruginosa expressing IMP-1, efflux + (MB9798) MITC95: concentration restoring susceptibility to imipenem at 2 μg/mL in the presence of a class A
Description: as §3, §4

[3] = system: Klebsiella pneumoniae expressing VIM-1 (IHMA599644); assay type: cell-based; conditions: for Klebsiella pneumoniae MITC95: VIM-1 strain IHMA599644, with imipenem 1 μg/ml, 95% inhibition of growth; for Klebsiella pneumoniae expressing VIM-1 (IHMA599644) MITC95: with imipenem 1 μg/ml, 95% inhibition of bacterial growth
Protocol: (§5) Antibiotic Potentiation Activity: Determination of Synergistic Concentration
(§6) The bacterial strains tested included the clinical strains Escherichia coli expressing NDM-1 (CLB30005, CLB30016), Serratia marcescens expressing IMP-1 (CL5741), and Klebsiella pneumoniae expressing VIM-1 (IHMA599644). Inhibitor activity was measured in the presence and absence of imipenem in a 384-well microplate.
(§7) The clinical strains CLB30016, CL5741 and IHMA599644 were grown on trypticase soy agar containing 5% sheep's blood. The bacteria on agar plates were incubated at 35° C. with humidity overnight. The following day, individual colonies from each clinical strain were picked and resuspended in 5 ml saline to attain an OD600 of […], for CLB30016, CL5741 and IHMA599644, respectively. These were further diluted 1:100 into 1.1×CAMHB and used to inoculate the test wells as described below.
(§8) Imipenem in 10 mM 3-(N-morpholino)propanesulfonic acid (MOPS, pH 7) was stored in single use aliquots at −80° C. […] On the day of the assay, 4 μl of antibiotic was added to 45 ul of bacteria followed by 1 μl of test compound and mixed by pipetting and with an orbital shaker. The concentration of antibiotic used in the assay was 1 μg/ml. Microplates were covered and incubated at 35° C. for 22 hours to 24 hours. At the end of the incubation, absorbance was determined using a spectrophotometer.

[4] = system: Escherichia coli expressing NDM-1 (CLB30005, CLB30016); assay type: cell-based; conditions: with imipenem 1 μg/ml; for Escherichia coli MITC95: NDM-1 strain, 95% inhibition of growth; for Escherichia coli expressing NDM-1 (CLB30016) MITC95: 95% inhibition of bacterial growth
Protocol: as §5, §6, §7, §8

[5] = system: Serratia marcescens expressing IMP-1 (CL5741); assay type: cell-based; conditions: for Serratia marcescens MITC95: IMP-1 strain CL5741, with imipenem 1 μg/ml, 95% inhibition of growth; for Serratia marcescens expressing IMP-1 (CL5741) MITC95: with imipenem 1 μg/ml, 95% inhibition of bacterial growth
Protocol: as §5, §6, §7, §8

Sequence of IMP-1 (P52699 whole entry, looked up, species assumed): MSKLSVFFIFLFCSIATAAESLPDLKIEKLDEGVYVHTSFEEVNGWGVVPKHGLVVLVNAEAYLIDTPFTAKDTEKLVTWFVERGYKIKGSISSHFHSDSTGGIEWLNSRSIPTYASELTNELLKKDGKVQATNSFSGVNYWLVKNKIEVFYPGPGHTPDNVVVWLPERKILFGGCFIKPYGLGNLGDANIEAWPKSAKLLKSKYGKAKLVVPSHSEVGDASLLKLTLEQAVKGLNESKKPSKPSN

Row | SMILES | IC50 (IMP-1) | IC50 (NDM-1) | Concentration of metallo-β-lactamase inhibitor which restores susceptibility of efflux − (MB9799) strain to imipenem [1] | Concentration of metallo-β-lactamase inhibitor which restores susceptibility of efflux + (MB9798) strain to imipenem [2] | Klebsiella pneumoniae MITC95 [3] | Escherichia coli MITC95 [4] | Serratia marcescens MITC95 [5] | P. aeruginosa expressing IMP-1, efflux − (MB9799) MITC95 [1] | P. aeruginosa expressing IMP-1, efflux + (MB9798) MITC95 [2] | Klebsiella pneumoniae expressing VIM-1 (IHMA599644) MITC95 [3] | Escherichia coli expressing NDM-1 (CLB30016) MITC95 [4] | Serratia marcescens expressing IMP-1 (CL5741) MITC95 [5]
1 | C[C@@H](CN)NS(=O)(=O)c1ccc(-c2cc(F)cc3[nH]c(N)nc23)c(-c2nn[nH]n2)c1S(N)(=O)=O [Example 397] | 1.6 nM | 0.161 nM | 1.563 | 1.563 | 3.125 µM | 3.125 µM | 0.7813 µM | – | – | – | – | –
2 | Nc1ccc(-c2ccc(S(=O)(=O)N[C@@H]3CCCNC3)c(S(N)(=O)=O)c2-c2nn[nH]n2)cn1 [Example 490, (R)-4-(6-aminopyridin-3-yl)-N1-(piperidin-3-yl)-3-(2H-tetrazol-5-yl)benzene-1,2-disulfonamide] | 0.176 nM | 0.0439 nM | 1.563 | 1.563 | 3.125 µM | 0.7813 µM | 1.563 µM | – | – | – | – | –
3 | C[N+](C)(C)CCCNS(=O)(=O)c1ccc(-c2cccc3sc(N)nc23)c(-c2nnn[nH]2)c1S(N)(=O)=O.O=C([O-])C(F)(F)F [Example 392, 3-({[4-(2-amino-1,3-benzothiazol-4-yl)-2-sulfamoyl-3-(1H-tetrazol-5-yl)phenyl]sulfonyl}amino)-N,N,N-trimethylpropan-1-aminium trifluoroacetate] | 0.221 nM | 0.0318 nM | 3.125 | 1.563 | 12.5 µM | 3.125 µM | 3.125 µM | – | – | – | – | –
4 | CN(C)C(=O)c1ccccc1-c1ccc(S(=O)(=O)N[C@@H]2CCNC2)c(S(N)(=O)=O)c1-c1nnn[nH]1 [Example 129, (R)-N,N-dimethyl-4′-(N-(pyrrolidin-3-yl)sulfamoyl)-3′-sulfamoyl-2′-(1H-tetrazol-5-yl)-[1,1′-biphenyl]-2-carboxamide] | 9.07 nM | 0.279 nM | – | – | – | – | – | 3.125 µM | 12.5 µM | 12.5 µM | 6.25 µM | 6.25 µM
5 | Nc1nc2c(-c3ccc(S(=O)(=O)N[C@@H]4CCNC4)c(S(N)(=O)=O)c3-c3nnn[nH]3)cc(F)cc2[nH]1 [Example 181, (R)-4-(2-amino-6-fluoro-1H-benzo[d]imidazol-4-yl)-N^1-(pyrrolidin-3-yl)-3-(1H-tetrazol-5-yl)benzene-1,2-disulfonamide] | 0.273 nM | 0.0372 nM | – | – | – | – | – | 0.7813 µM | 0.3906 µM | 1.563 µM | 0.3906 µM | 0.7813 µM
6 | Nc1nc2c(-c3ccc(S(=O)(=O)NC[C@]4(F)CCCNC4)c(S(N)(=O)=O)c3-c3nnn[nH]3)cccc2s1.O=CO [Example 122, (S)-3-(((4-(2-aminobenzo[d]thiazol-4-yl)-2-sulfamoyl-3-(1H-tetrazol-5-yl)phenyl)sulfonamido)methyl)-3-fluoropiperidin-1-ium formate] | 0.282 nM | 0.0329 nM | – | – | – | – | – | 1.563 µM | 3.125 µM | 3.125 µM | 1.563 µM | 1.563 µM
7 | Cn1nnc2c(-c3ccc(S(=O)(=O)N[C@H]4CCNC4)c(S(N)(=O)=O)c3-c3nn[nH]n3)cccc21 [Example 293, (S)-4-(1-methyl-1H-benzo[d][1,2,3]triazol-4-yl)-N1-(pyrrolidin-3-yl)-3-(2H-tetrazol-5-yl)benzene-1,2-disulfonamide] | 1.3 nM | 0.285 nM | – | – | 3.125 µM | 3.125 µM | 3.125 µM | 1.563 µM | 3.125 µM | – | – | –
8 | C[C@H](N)CNS(=O)(=O)c1ccc(-c2ccnc(N)c2)c(-c2nn[nH]n2)c1S(N)(=O)=O [Example 421] | 1.14 nM | 0.196 nM | 0.7813 | 1.563 | 1.563 µM | 0.3906 µM | 0.7813 µM | – | – | – | – | –
9 | CCOC(=O)c1sc(N)nc1-c1cccc(-c2ccc(S(=O)(=O)NC(CN)CN)c(S(N)(=O)=O)c2-c2nnn[nH]2)c1 [Example 431] | 0.133 nM | 0.0739 nM | 1.563 | 12.5 | 6.25 µM | 3.125 µM | 3.125 µM | – | – | – | – | –
10 | Nc1ccc(-c2ccc(S(=O)(=O)N[C@H]3CCCNC3)c(S(N)(=O)=O)c2-c2nn[nH]n2)cn1 [Example 494, (S)-4-(6-aminopyridin-3-yl)-N1-(piperidin-3-yl)-3-(2H-tetrazol-5-yl)benzene-1,2-disulfonamide] | 0.808 nM | 0.276 nM | 1.563 | 3.125 | 3.125 µM | 0.7813 µM | 1.563 µM | – | – | – | – | –
